The target in series [1] is Phosphatidylinositol 4,5-bisphosphate 3-kinase catalytic subunit alpha isoform (Homo sapiens, UniProt P42336).
Description: Inhibition of PI3Kalpha (unknown origin) using biotin-PIP3 as substrate preincubated for 15 mins followed by substrate addition and measured after 60 mins by fluorescence polarization assay
A short description of series [2]: Lipophilicity, logD of compound at pH 7.4 by HPLC-MS analysis. As to conditions: buffer.
Series [3] deals with Phosphatidylinositol 4,5-bisphosphate 3-kinase catalytic subunit beta isoform (Homo sapiens, UniProt P42338). Briefly: Inhibition of PI3Kbeta (unknown origin) using biotin-PIP3 as substrate preincubated for 15 mins followed by substrate addition and measured after 60 mins by fluorescence polarization assay. On the technique in general: In fluorescence polarisation assays a small probe gives low polarisation when free and higher when bound to something large.
Sequence of Phosphatidylinositol 4,5-bisphosphate 3-kinase catalytic subunit beta isoform (P42338 whole entry, canonical isoform): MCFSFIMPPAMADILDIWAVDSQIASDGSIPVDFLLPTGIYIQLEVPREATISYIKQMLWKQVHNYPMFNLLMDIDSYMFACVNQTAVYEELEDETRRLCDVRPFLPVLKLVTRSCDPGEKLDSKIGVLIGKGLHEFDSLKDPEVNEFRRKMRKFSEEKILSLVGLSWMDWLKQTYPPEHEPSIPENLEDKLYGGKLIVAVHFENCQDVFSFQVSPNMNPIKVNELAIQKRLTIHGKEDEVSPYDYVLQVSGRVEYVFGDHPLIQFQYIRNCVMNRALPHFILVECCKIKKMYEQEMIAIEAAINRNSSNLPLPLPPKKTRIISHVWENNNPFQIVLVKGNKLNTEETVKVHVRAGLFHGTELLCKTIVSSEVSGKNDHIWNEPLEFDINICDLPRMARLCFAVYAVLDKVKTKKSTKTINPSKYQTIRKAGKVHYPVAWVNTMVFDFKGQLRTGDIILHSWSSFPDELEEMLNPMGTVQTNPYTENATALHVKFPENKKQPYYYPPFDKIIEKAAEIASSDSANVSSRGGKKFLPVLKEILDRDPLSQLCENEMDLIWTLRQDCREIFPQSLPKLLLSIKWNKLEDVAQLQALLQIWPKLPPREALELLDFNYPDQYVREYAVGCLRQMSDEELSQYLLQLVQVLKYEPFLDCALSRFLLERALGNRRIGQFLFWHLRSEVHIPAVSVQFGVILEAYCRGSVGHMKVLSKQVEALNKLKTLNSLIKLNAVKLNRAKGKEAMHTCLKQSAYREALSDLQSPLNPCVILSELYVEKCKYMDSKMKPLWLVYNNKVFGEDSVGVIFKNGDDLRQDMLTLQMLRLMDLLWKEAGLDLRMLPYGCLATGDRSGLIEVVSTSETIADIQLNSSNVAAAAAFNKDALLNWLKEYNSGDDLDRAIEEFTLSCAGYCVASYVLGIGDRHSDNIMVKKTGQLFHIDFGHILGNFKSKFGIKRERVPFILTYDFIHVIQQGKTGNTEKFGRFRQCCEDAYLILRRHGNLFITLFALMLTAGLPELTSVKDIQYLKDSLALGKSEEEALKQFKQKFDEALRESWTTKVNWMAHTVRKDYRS

Series [4] addresses T1, Phosphatidylinositol 4,5-bisphosphate 3-kinase catalytic subunit delta isoform (Homo sapiens, UniProt O00329).
T1 sequence (O00329 whole entry): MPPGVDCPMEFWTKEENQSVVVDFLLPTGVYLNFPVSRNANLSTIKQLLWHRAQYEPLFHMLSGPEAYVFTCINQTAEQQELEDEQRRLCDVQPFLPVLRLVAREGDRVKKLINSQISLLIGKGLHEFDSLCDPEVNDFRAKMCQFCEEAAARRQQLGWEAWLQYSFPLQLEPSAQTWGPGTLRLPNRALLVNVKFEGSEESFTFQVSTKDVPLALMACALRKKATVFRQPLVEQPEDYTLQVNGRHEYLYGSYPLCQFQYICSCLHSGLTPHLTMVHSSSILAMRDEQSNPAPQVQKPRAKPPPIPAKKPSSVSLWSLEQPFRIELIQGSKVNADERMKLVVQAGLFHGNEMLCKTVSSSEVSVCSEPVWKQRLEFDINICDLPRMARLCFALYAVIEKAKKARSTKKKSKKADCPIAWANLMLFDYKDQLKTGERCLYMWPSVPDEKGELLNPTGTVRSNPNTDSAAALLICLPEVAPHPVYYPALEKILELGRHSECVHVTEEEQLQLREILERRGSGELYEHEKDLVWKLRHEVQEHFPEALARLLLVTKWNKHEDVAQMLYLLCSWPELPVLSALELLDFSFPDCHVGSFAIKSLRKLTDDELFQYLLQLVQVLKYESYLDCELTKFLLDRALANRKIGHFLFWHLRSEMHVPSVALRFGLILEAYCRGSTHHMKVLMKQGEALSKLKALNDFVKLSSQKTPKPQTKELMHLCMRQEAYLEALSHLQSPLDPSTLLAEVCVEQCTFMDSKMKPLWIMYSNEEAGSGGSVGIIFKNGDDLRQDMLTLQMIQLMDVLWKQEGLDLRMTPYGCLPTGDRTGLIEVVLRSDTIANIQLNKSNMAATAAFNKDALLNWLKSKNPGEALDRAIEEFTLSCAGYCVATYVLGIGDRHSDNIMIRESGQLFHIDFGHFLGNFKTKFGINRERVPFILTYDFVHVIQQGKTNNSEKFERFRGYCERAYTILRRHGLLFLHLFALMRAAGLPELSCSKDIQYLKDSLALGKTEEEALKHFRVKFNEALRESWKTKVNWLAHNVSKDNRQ
Description: Inhibition of PI3Kdelta (unknown origin) using biotin-PIP3 as substrate preincubated for 15 mins followed by substrate addition and measured after 60 mins by fluorescence polarization assay

The target of series [5] is Phosphatidylinositol 4,5-bisphosphate 3-kinase catalytic subunit gamma isoform (Homo sapiens, UniProt P48736).
Sequence of Phosphatidylinositol 4,5-bisphosphate 3-kinase catalytic subunit gamma isoform (P48736 whole entry, canonical isoform): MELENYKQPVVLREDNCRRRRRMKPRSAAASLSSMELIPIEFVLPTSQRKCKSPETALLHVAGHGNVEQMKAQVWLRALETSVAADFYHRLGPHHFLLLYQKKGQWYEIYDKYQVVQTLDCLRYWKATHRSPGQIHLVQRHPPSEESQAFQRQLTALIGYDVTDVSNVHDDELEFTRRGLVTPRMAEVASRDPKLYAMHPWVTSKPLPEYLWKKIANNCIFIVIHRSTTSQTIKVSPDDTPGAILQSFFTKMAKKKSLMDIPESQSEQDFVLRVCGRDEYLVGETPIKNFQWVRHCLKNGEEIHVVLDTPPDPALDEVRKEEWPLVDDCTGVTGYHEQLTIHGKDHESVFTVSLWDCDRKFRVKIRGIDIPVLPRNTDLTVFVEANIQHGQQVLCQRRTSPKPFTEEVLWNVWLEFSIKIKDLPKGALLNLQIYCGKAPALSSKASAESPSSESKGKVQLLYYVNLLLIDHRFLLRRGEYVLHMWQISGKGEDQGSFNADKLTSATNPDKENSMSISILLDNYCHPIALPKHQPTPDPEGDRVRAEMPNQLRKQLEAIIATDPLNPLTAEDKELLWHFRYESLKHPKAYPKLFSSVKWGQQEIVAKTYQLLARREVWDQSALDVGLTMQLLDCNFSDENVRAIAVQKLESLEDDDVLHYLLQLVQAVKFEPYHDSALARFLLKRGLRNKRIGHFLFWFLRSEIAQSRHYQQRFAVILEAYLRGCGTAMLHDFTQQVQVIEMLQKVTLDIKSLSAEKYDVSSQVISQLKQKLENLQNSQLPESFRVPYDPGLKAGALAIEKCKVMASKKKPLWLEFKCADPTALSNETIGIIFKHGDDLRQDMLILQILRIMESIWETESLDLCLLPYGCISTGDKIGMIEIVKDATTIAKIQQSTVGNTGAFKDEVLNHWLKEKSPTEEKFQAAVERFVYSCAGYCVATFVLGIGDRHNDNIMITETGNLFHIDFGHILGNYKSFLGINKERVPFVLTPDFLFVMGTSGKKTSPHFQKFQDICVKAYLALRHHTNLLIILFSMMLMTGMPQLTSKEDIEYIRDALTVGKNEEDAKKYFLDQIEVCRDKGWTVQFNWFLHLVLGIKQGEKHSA
Description: Inhibition of PI3Kgamma (unknown origin) using biotin-PIP3 as substrate preincubated for 15 mins followed by substrate addition and measured after 60 mins by fluorescence polarization assay

SMILES strings stand for the structures.

Sequence of Phosphatidylinositol 4,5-bisphosphate 3-kinase catalytic subunit alpha isoform (P42336 whole entry, canonical isoform): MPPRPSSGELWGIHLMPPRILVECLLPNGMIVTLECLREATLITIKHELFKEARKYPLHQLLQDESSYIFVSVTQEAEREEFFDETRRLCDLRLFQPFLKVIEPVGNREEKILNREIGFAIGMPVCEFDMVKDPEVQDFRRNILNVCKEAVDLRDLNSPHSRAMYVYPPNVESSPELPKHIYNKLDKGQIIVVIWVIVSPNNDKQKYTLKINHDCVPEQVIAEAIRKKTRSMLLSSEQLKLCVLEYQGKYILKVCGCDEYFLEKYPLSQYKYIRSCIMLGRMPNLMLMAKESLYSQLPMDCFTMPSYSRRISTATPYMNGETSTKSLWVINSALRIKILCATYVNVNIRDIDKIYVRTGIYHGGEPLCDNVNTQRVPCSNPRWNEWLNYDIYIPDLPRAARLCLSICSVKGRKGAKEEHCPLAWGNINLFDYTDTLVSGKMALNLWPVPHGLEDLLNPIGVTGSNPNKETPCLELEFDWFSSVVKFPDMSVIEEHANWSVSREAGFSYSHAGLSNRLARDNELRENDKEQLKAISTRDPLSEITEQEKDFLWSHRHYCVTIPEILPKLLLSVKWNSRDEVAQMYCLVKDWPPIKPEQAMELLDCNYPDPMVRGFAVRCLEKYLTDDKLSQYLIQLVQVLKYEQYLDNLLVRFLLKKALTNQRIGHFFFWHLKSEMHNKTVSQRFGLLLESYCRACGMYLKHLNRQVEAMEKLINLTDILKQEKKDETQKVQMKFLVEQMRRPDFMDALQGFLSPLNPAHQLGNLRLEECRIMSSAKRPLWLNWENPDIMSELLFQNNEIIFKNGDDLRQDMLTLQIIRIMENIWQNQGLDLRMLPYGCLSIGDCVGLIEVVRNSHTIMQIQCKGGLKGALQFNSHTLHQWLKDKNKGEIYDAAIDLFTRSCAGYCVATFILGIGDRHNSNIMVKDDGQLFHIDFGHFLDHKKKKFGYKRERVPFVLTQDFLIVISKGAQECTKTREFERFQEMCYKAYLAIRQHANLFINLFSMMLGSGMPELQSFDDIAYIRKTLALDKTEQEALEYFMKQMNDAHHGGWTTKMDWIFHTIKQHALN

As to `COCC(=O)NC1CCN(Cc2cc3nc(-c4cccc5[nH]ncc45)nc(N4CCOCC4)c3s2)CC1`, the IC50 is 398 nM in series [1], 3980 nM in series [3] and 126 nM in series [4]. Further, in series [2], the logD came out at 3.9.
Regarding `COCC(=O)NC1CCCN(Cc2cc3nc(-c4cccc5[nH]ccc45)nc(N4CCOCC4)c3s2)C1` (racemic), the IC50 in series [1] is 2510 nM; in series [5] it was 2000 nM; in series [3], 6310 nM; in series [4] it was 79.4 nM. This compound also came in with a logD in series [2] of 5.
In the same order, the values of `CC(=O)N(C)C1CCCN(Cc2cc3nc(-c4cccc5[nH]ncc45)nc(N4CCOCC4)c3s2)C1` (racemic) are 251 nM, 501 nM, 2000 nM, 39.8 nM and 4.5.
In the same order, the values of `CN(C1CCN(Cc2cc3nc(-c4cccc5[nH]ncc45)nc(N4CCOCC4)c3s2)C1)S(C)(=O)=O` (racemic) are 126 nM, 398 nM, 1580 nM, 25.1 nM and 4.6.
Turning to `CNC(=O)NC1CCCN(Cc2cc3nc(-c4cnc(N)nc4)nc(N4CCOCC4)c3s2)C1` (racemic), the IC50 was 79.4 nM in series [1], 158 nM in series [5], 2000 nM in series [3] and 126 nM in series [4]. The compound also displayed a logD in series [2] of 2.6.
On the same counts, the results for `CNC(=O)NC1CCN(Cc2cc3nc(-c4cnc(N)nc4)nc(N4CCOCC4)c3s2)C1` (racemic) are 63.1 nM, 158 nM, 1000 nM, 158 nM and 1.7.
In the same order, the values of `CN(C1CCN(Cc2cc3nc(-c4cccc5[nH]ccc45)nc(N4CCOCC4)c3s2)CC1)S(C)(=O)=O` are 1580 nM, 794 nM, 1260 nM, 12.6 nM and 5.2.
Regarding `CC(=O)NC1CCCN(Cc2cc3nc(-c4cccc5[nH]ncc45)nc(N4CCOCC4)c3s2)C1` (racemic), the IC50 in series [1] was 251 nM; in series [5], 1260 nM; in series [3] it was 6310 nM; in series [4], 79.4 nM. In series [2], this compound had a logD of 4.
In the same order, the values of `CS(=O)(=O)NC1CCCN(Cc2cc3nc(-c4cccc5[nH]ncc45)nc(N4CCOCC4)c3s2)C1` (racemic) are 501 nM, 1580 nM, 7940 nM, 50.1 nM and 4.3.
On the same counts, the results for `CN(C1CCN(Cc2cc3nc(-c4cccc5[nH]ccc45)nc(N4CCOCC4)c3s2)C1)S(C)(=O)=O` (racemic) are 631 nM, 501 nM, 501 nM, 10 nM and 5.1.
On the same counts, the results for `CS(=O)(=O)NC1CCN(Cc2cc3nc(-c4cccc5[nH]ncc45)nc(N4CCOCC4)c3s2)CC1` are 126 nM, 794 nM, 1260 nM, 39.8 nM and 3.8.
As for `CNC(=O)NC1CCN(Cc2cc3nc(-c4cccc5[nH]ccc45)nc(N4CCOCC4)c3s2)CC1`, the IC50 in series [1] is 3980 nM; in series [3] it was 2510 nM; in series [4], 158 nM. Also, the logD in series [2] worked out at 3.6.
As for `COCC(=O)NC1CCN(Cc2cc3nc(-c4cnc(N)nc4)nc(N4CCOCC4)c3s2)CC1`, the IC50 in series [1] is 50.1 nM; in series [5], 63.1 nM; in series [3], 794 nM; in series [4], 39.8 nM. In series [2], this compound came in with a logD of 2.3.
On the same counts, the results for `CC(=O)N[C@H]1CCN(Cc2cc3nc(-c4cnc(N)nc4)nc(N4CCOCC4)c3s2)C1` are 200 nM, 251 nM, 3980 nM, 316 nM and 1.8.
On to `CC(=O)NC1CCCN(Cc2cc3nc(-c4cccc5[nH]ccc45)nc(N4CCOCC4)c3s2)C1` (racemic), for which the IC50 in series [1] is 3980 nM; in series [5], 2510 nM; in series [3], 2510 nM; in series [4], 50.1 nM. In addition, the log distribution coefficient (logD) in series [2] amounted to 4.5.
With `CN(C1CCN(Cc2cc3nc(-c4cnc(N)nc4)nc(N4CCOCC4)c3s2)C1)S(C)(=O)=O` (racemic), the IC50 was 7.94 nM in series [1], 12.6 nM in series [5], 251 nM in series [3] and 6.31 nM in series [4]. The logD in series [2] amounted to 3.1.
For `CC(=O)N(C)C1CCCN(Cc2cc3nc(-c4cccc5[nH]ccc45)nc(N4CCOCC4)c3s2)C1` (racemic), the IC50 in series [1] is 1580 nM; in series [5], 2510 nM; in series [3], 2510 nM; in series [4], 25.1 nM. This compound displayed a logD in series [2] of 5.
Consider `CC(=O)N(C)C1CCN(Cc2cc3nc(-c4cccc5[nH]ncc45)nc(N4CCOCC4)c3s2)C1` (racemic), for which the IC50 in series [1] was 200 nM; in series [5], 1000 nM; in series [3] it was 1000 nM; in series [4], 20 nM. In series [2], this compound displayed a logD of 3.6.
On to `CC(=O)N[C@@H]1CCN(Cc2cc3nc(-c4cnc(N)nc4)nc(N4CCOCC4)c3s2)C1`, for which the IC50 was 126 nM in series [1], 126 nM in series [5], 2000 nM in series [3] and 158 nM in series [4]. In addition, the logD in series [2] was 1.8.
For the compound `CNC(=O)NC1CCCN(Cc2cc3nc(-c4cccc5[nH]ccc45)nc(N4CCOCC4)c3s2)C1` (racemic), the IC50 in series [1] was 3980 nM; in series [5] it was 2510 nM; in series [3], 2510 nM; in series [4] it was 126 nM. Further, in series [2], the logD is 4.1.
In the case of `CN(C1CCCN(Cc2cc3nc(-c4cccc5[nH]ncc45)nc(N4CCOCC4)c3s2)C1)S(C)(=O)=O` (racemic), the IC50 is 200 nM in series [1], 794 nM in series [5], 2510 nM in series [3] and 20 nM in series [4]. Also, the logD in series [2] was 4.9.
On to `CNC(=O)N(C)C1CCN(Cc2cc3nc(-c4cccc5[nH]ncc45)nc(N4CCOCC4)c3s2)C1` (racemic), for which the IC50 in series [1] is 794 nM; in series [5], 1580 nM; in series [3] it was 1580 nM; in series [4], 63.1 nM.
For the compound `CC(=O)N(C)[C@H]1CCN(Cc2cc3nc(-c4cnc(N)nc4)nc(N4CCOCC4)c3s2)C1`, the IC50 was 20 nM in series [1], 15.8 nM in series [5], 631 nM in series [3] and 12.6 nM in series [4]. In addition, in series [2], the logD is 2.5.
In the same order, the values of `CNC(=O)N(C)C1CCCN(Cc2cc3nc(-c4cnc(N)nc4)nc(N4CCOCC4)c3s2)C1` (racemic) are 79.4 nM, 200 nM, 2000 nM, 79.4 nM and 2.9.
In the case of `COCC(=O)N(C)C1CCN(Cc2cc3nc(-c4cccc5[nH]ncc45)nc(N4CCOCC4)c3s2)CC1`, the half-maximal inhibitory concentration (IC50) in series [1] was 501 nM; in series [3] it was 1580 nM; in series [4], 25.1 nM. In series [2], this compound gave a logD of 3.8.
Take `CC(=O)N(C)C1CCCN(Cc2cc3nc(-c4cnc(N)nc4)nc(N4CCOCC4)c3s2)C1` (racemic): the IC50 in series [1] was 63.1 nM; in series [5], 100 nM; in series [3], 2000 nM; in series [4] it was 15.8 nM. In series [2], this compound displayed a logD of 3.1.
Regarding `CC(=O)NC1CCN(Cc2cc3nc(-c4cccc5[nH]ncc45)nc(N4CCOCC4)c3s2)CC1`, the IC50 was 631 nM in series [1], 6310 nM in series [3] and 200 nM in series [4]. This compound displayed a logD in series [2] of 3.2.
With `CC(=O)NC1CCN(Cc2cc3nc(-c4cccc5[nH]ccc45)nc(N4CCOCC4)c3s2)CC1`, the half-maximal inhibitory concentration (IC50) is 3160 nM in series [1] and 79.4 nM in series [4]. The same compound displayed a logD in series [2] of 4.
Take `COCC(=O)NC1CCN(Cc2cc3nc(-c4cccc5[nH]ccc45)nc(N4CCOCC4)c3s2)CC1`: the logD in series [2] turned out to be 4.3. In series [4], this compound had an IC50 of 79.4 nM.
On to `CNC(=O)NC1CCN(Cc2cc3nc(-c4cccc5[nH]ncc45)nc(N4CCOCC4)c3s2)CC1`, for which the IC50 in series [1] is 251 nM; in series [3], 3160 nM; in series [4] it was 100 nM. The logD in series [2] was found to be 3.1.

Broadly, the IC50 is the concentration at which inhibition is half-maximal. Broadly, the logD is lipophilicity at a set pH, counting ionised and neutral species. Read a low logD as a more hydrophilic compound.

The values are drawn from ChEMBL document CHEMBL4414631 (J Med Chem, 2019).
